# Experimental data taken from US20200165225A1, “BACE1 INHIBITORS FOR TREATMENT OF ALZHEIMER'S DISEASE” (NantBio, Inc., priority 2017, published 2020).
# Target: BACE-1 (Homo sapiens, UniProt P56817)
# Assay: Inhibition of BACE cleavage of a P5-P5′ fluorescent peptide substrate containing the Swedish mutation cleavage site
# Format: biochemical
# Conditions: fluorogenic P5-P5′ BACE-1 substrate; 30 minutes preincubation at room temperature; signal read every 30 minutes at 25° C. for 2 hr
# Experimental: The compounds were evaluated for inhibition of BACE cleavage of a P5-P5′ fluorescent peptide substrate containing the Swedish mutation cleavage site. In detail, 4 μL of assay buffer was added to each well, followed by 2 μL of BACE-1 diluted in assay buffer to 7.5 ng/uL. Then, 2 μL of compound, at concentrations along an 11 pt. two-fold dilution series starting at 10 uM, or 0.5 uM, were added to the appropriated wells and incubated for 30 minutes at room temperature. For all dilutions of inhibitor, the compound stock solutions of 10 mM in DMSO were diluted to 50 uM in water; subsequent dilutions were in 0.5% DMSO. Afterwards, 2 μL of fluorogenic P5-P5′ BACE-1 substrate, diluted to 50 μM in assay buffer, were added to each well, after which the signal generated was read every 30 minutes at 25° C. for 2 hr.
# Chain of BACE-1 (P56817 46-501): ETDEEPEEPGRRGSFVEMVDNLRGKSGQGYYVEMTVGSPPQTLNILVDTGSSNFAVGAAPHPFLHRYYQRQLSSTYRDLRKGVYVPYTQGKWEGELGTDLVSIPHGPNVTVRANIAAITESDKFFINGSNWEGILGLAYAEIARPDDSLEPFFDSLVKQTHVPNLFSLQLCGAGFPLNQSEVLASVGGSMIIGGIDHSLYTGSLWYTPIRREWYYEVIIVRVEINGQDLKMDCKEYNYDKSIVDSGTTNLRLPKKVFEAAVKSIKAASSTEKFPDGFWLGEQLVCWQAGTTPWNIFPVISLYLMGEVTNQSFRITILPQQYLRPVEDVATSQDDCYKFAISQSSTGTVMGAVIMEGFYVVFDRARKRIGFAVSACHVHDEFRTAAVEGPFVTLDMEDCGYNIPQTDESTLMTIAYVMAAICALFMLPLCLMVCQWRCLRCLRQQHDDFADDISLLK
row,Structure (SMILES),IC50
1,CN1C(=O)C(c2ccc(C(F)(F)F)nc2)(c2cccc(-c3cncnc3)c2)N=C1N (centres unmarked) [Compound 4],980 nM
2,Cc1cc(C2(c3ccnc(C(F)(F)F)c3)N=C(N)N(C)C2=O)ccc1OC(F)F (centres unmarked) [Compound 3],9720 nM
3,CN1C(=O)C(c2cccc(-c3cncnc3)c2)(c2ccnc(C(F)(F)F)c2)N=C1N (centres unmarked) [Compound 2],70 nM
4,CN1C(=O)C(c2cccc(-c3cncnc3)c2)(c2ccnc(C(F)F)c2)N=C1N (centres unmarked) [Compound 1],30 nM

# Next, values leading:
row,IC50,Structure (SMILES)
1,500 nM,CN1C(=O)C(c2cccc(-c3cncnc3)c2)(c2cccc(C(F)F)n2)N=C1N (centres unmarked) [Compound 7]
2,7860 nM,CN1C(=O)C(c2cccc(-c3cncnc3)c2)(c2cccc(C(F)(F)F)n2)N=C1N (centres unmarked) [Compound 5]
3,940 nM,CN1C(=O)C(c2ccc(C(F)F)nc2)(c2cccc(-c3cncnc3)c2)N=C1N (centres unmarked) [Compound 6]
4,170 nM,CN1C(=O)C(c2cccc(-c3cncnc3)c2)(c2cccc(C(F)F)c2)N=C1N (centres unmarked) [Compound 8]
